# Data as given in patent US9062043B2, “Fused tricyclic compounds as serine-threonine protein kinase and PARP modulators” (SENHWA BIOSCIENCES, INC., priority 2006, dated 2015).
# Read-outs that look alike come from different tables or passages of the source.
# Columns and labels:
# [1] = tested on: PC-3 human prostatic cancer cells; experiment: Cell proliferation assay, Alamar Blue, PC-3; assay type: cell-based
# Procedure: (§1) A representative cell-proliferation assay protocol using Alamar Blue dye (stored at 4° C., use 20 ul per well) is described hereafter.
# (§2) c. Plate 4,000-5,000 cells per well in 100 μl of medium and seed into a 96-well plate according to the following plate layout. Add cell culture medium only to wells B10 to B12. Wells B1 to B9 have cells but no compound added.
# (§3) d. Add 100 μl of 2× drug dilution to each well in a concentration shown in the plate layout above. At the same time, add 100 μl of media into the control wells (wells B10 to B12). Total volume is 200 μl/well.
# (§4) e. Incubate four (4) days at 37° C., 5% CO2 in a humidified incubator.
# (§5) f. Add 20 μl Alamar Blue reagent to each well.
# (§6) g. Incubate for four (4) hours at 37° C., 5% CO2 in a humidified incubator.
# (§7) h. Record fluorescence at an excitation wavelength of 544 nm and emission wavelength of 590 nm using a microplate reader.
# (§8) In the assays, cells are cultured with a test compound for approximately four days, the dye then is added to the cells and fluorescence of […] dye is detected after approximately four hours. Different types of cells can be utilized in the assays (e.g., HCT-116 human colorectal carcinoma cells, PC-3 human prostatic cancer cells and MiaPaca human pancreatic carcinoma cells). Anti-proliferative effects of representative compounds are provided hereafter.
# [2] = tested on: MiaPaca human pancreatic carcinoma cells; experiment: Cell proliferation assay, Alamar Blue, MiaPaca; assay type: cell-based
# Procedure: as §1, §2, §3, §4, §5, §6, §7, §8
# [3] = tested on: Jurkat; experiment: Cell proliferation assay, Alamar Blue, Jurkat; assay type: cell-based; conditions: Homo sapiens;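 also: cells exposed to compound for about 4 days at 37 °C, then Alamar Blue added and fluorescence read after about 4 h, controls given medium without drug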
# [4] = tested on: HCT-116 human colorectal carcinoma cells; experiment: Cell proliferation assay, Alamar Blue, HCT-116; assay type: cell-based;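 also: cells exposed to compound for about 4 days, then Alamar Blue added and fluorescence read after about 4 h, medium-only wells as control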
# [5] = tested on: Hs578T; experiment: Cell proliferation assay, Alamar Blue, Hs578T; assay type: cell-based; conditions: Homo sapiens, Hs-578T
# [6] = tested on: H1299; experiment: Cell proliferation assay, Alamar Blue, H1299; assay type: cell-based; conditions: Homo sapiens, NCI-H1299
# Procedure: as §2, §3, §4, §5, §6, §7, §8
# [7] = tested on: PanC1; experiment: Cell proliferation assay, Alamar Blue, PanC1; assay type: cell-based; conditions: Homo sapiens, PANC-1; Table 19b; read-out: IC50 PanC1
# Procedure: as §1, §2, §3, §4, §5, §6, §7, §8
# [8] = tested on: BxPC3; experiment: Cell proliferation assay, Alamar Blue, BxPC3; assay type: cell-based; conditions: Homo sapiens, BXPC-3; Table 19b
# Procedure: as §2, §3, §4, §5, §6, §7, §8
# [9] = tested on: HT29; experiment: Cell proliferation assay, Alamar Blue, HT29; assay type: cell-based; conditions: Homo sapiens, HT-29; Table 19b
# Procedure: as §2, §3, §4, §5, §6, §7, §8
# [10] = Pharmacokinetics in ICR mice after IV and PO dose; assay type: in vivo
# [11] = HCT-116, Table 16, second HCT-116 column
# [12] = HCT-116, Table 16, first HCT-116 column
smiles,measurement,setting,value
CNC(=O)c1cccc(Nc2nc3cc(-c4nnn[nH]4)ccc3c3sccc23)c1,IC50,"[1]; Table 16, read-out: IC50 PC3",2.79 µM
same,IC50,"[2]; MIA PaCa-2, Table 16",> 10 µM
same,IC50,[3]; Table 16,4.22 µM
same,IC50,[4]; [11],> 10 µM
same,IC50,[5]; Table 16,3.01 µM
same,IC50,[6]; Table 16,4.01 µM
O=C(O)c1ccc2c(c1)nc(NC1CC1)c1nc(Nc3ccccc3)ncc12 [drawing 1076],IC50,"[2]; MIA PaCa-2, Table 18",2.44 µM
same,IC50,[3]; Table 18,4.6 µM
same,IC50,"[4]; HCT-116, Table 18",> 10 µM
O=C(O)c1ccc2c(c1)nc(Nc1ccccc1)c1ccsc12,IC50,"[1]; Table 16, read-out: IC50 PC3",9.09 µM
same,IC50,"[2]; MIA PaCa-2, Table 16",> 10 µM
same,IC50,[3]; Table 16,6.12 µM
same,IC50,[4]; [12],> 10 µM
same,IC50,[4]; [11],> 10 µM
same,IC50,[5]; Table 16,6.38 µM
same,IC50,[6]; Table 16,4.39 µM
C#Cc1cccc(Nc2nc3cc(C(=O)O)ccc3c3cnc(NCC4CC4)nc23)c1 [drawing 1257],IC50,[7],1.3 µM
same,IC50,[8],0.82 µM
O=C(O)c1ccc2c(c1)nc(NCCc1cccc(F)c1)c1ccncc12 [drawing 1022],IC50,"[1]; Table 18, read-out: IC50 PC3",27 µM
same,IC50,"[2]; MIA PaCa-2, Table 18",> 10 µM
same,IC50,"[4]; HCT-116, Table 18",> 10 µM
same,IC50,[5]; Table 18,24.6 µM
C#Cc1cccc(Nc2nc3cc(C(=O)O)ccc3c3cnc(NCC4CC4)nc23)c1 [drawing 1064],IC50,"[2]; MIA PaCa-2, Table 18",0.48 µM
same,IC50,[3]; Table 18,0.42 µM
same,IC50,"[4]; HCT-116, Table 18",> 10 µM
CN(C)CCNc1nc2cc(C(=O)O)ccc2c2sccc12,IC50,"[1]; Table 16, read-out: IC50 PC3",> 50 µM
same,IC50,[4]; [12],> 10 µM
same,IC50,[5]; Table 16,> 50 µM
same,IC50,[6]; Table 16,8.9 µM
O=C(O)c1ccc2c(c1)nc(NC1CC1)c1nc(NC3CC3)ncc12 [drawing 1267],IC50,[7],2.6 µM
same,IC50,[8],2.59 µM
CCCNc1ncc2c(n1)c(NC1CC1)nc1cc(C(=O)O)ccc12 [drawing 1103],IC50,"[2]; MIA PaCa-2, Table 18",4.65 µM
same,IC50,[3]; Table 18,7.49 µM
same,IC50,"[4]; HCT-116, Table 18",> 10 µM
CNc1ncc2c(n1)c(Nc1cccc(Cl)c1)nc1cc(C(=O)O)ccc12,IC50,"[2]; MIA PaCa-2, Table 18",1.75 µM
same,IC50,[3]; Table 18,1.09 µM
same,IC50,"[4]; HCT-116, Table 18",> 10 µM
C#Cc1cccc(Nc2nc3cc(C(=O)O)ccc3c3cnc(NCC4CCCO4)nc23)c1 (stereo not drawn) [drawing 1063],IC50,"[2]; MIA PaCa-2, Table 18",0.45 µM
same,IC50,[3]; Table 18,2.04 µM
same,IC50,"[4]; HCT-116, Table 18",> 10 µM
COC(=O)c1ccc2c(c1)nc(NC1CC1)c1nc(SCc3ccccc3Cl)ncc12 [drawing 1262],IC50,[7],3.48 µM
same,IC50,[8],2.12 µM
Cc1cccc(Nc2nc3cc(C(=O)O)ccc3c3cncnc23)c1,IC50,"[2]; MIA PaCa-2, Table 18",8.33 µM
same,IC50,[3]; Table 18,3.45 µM
same,IC50,"[4]; HCT-116, Table 18",> 10 µM
Clc1cccc(Nc2nc3cc(-c4nnn[nH]4)ccc3c3sccc23)c1,IC50,"[1]; Table 16, read-out: IC50 PC3",12 µM
same,IC50,"[2]; MIA PaCa-2, Table 16",> 10 µM
same,IC50,[3]; Table 16,8.89 µM
same,IC50,[5]; Table 16,5.23 µM
same,IC50,[6]; Table 16,15.2 µM
CN(C)CCNc1nc2cc(C(=O)O)ccc2c2cnc(NC3CC3)nc12 [drawing 1293],IC50,[7],> 50 µM
same,IC50,[8],13 µM
O=C(O)c1ccc2c(c1)nc(Nc1cncc(C3CC3)c1)c1ccncc12,IC50,[7],> 50 µM
same,IC50,[8],38.1 µM
O=C(O)c1ccc2c(c1)nc(NC1CC1)c1nc(NCc3ccccc3)ncc12 [drawing 1268],IC50,[7],25.8 µM
same,IC50,[8],10.9 µM
COC(=O)c1ccc2c(c1)nc(NC1CC1)c1nc(SC)ncc12 [drawing 1292],IC50,[7],> 50 µM
same,IC50,[8],7.39 µM
O=C(O)c1ccc2c(c1)nc(NCCc1ccccc1)c1ccncc12 [drawing 1007],IC50,"[1]; Table 18, read-out: IC50 PC3",23.6 µM
same,IC50,"[2]; MIA PaCa-2, Table 18",5.08 µM
same,IC50,"[4]; HCT-116, Table 18",> 10 µM
same,IC50,[5]; Table 18,16.5 µM
same,IC50,[6]; Table 18,21 µM
CCOc1ncc2c(n1)c(NC1CC1)nc1cc(C(=O)O)ccc12 [drawing 1266],IC50,[7],> 50 µM
same,IC50,[8],48.9 µM
O=C(O)c1ccc2c(c1)nc(NCCc1ccccc1)c1ccncc12 [drawing 1206],IC50,[9],46.9 µM
C#Cc1cccc(Nc2nc3cc(C(=O)O)ccc3c3cnc(NCC4CCCO4)nc23)c1 (stereo not drawn) [drawing 1256],IC50,[7],6.66 µM
same,IC50,[8],1.2 µM
Fc1cccc(Nc2nc3cc(-c4nnn[nH]4)ccc3c3sccc23)c1,IC50,"[1]; Table 16, read-out: IC50 PC3",2.89 µM
same,IC50,"[2]; MIA PaCa-2, Table 16",9.55 µM
same,IC50,[5]; Table 16,3.37 µM
same,IC50,[6]; Table 16,3.05 µM
O=C(O)c1ccc2c(c1)nc(NC1CC1)c1nc(NCc3ccccc3)ncc12 [drawing 1075],IC50,"[2]; MIA PaCa-2, Table 18",14.7 µM
same,IC50,[3]; Table 18,8.82 µM
same,IC50,"[4]; HCT-116, Table 18",> 10 µM
O=C(O)c1ccc2c(c1)nc(NC1CC1)c1ccncc12 [drawing 1290],IC50,[7],> 50 µM
same,IC50,[8],49 µM
O=C(O)c1ccc2c(c1)nc(N1CCOCC1)c1nc(NC3CC3)ncc12 [drawing 1278],IC50,[7],> 50 µM
same,IC50,[8],> 50 µM
O=C(O)c1ccc2c(c1)nc(NC1CC1)c1nc(Nc3ccccc3)ncc12 [drawing 1269],IC50,[7],4.02 µM
same,IC50,[8],3.92 µM
O=C(O)c1ccc2c(c1)nc(NCCCc1ccccc1)c1ccncc12 [drawing 1023],IC50,"[1]; Table 18, read-out: IC50 PC3",5.25 µM
same,IC50,"[2]; MIA PaCa-2, Table 18",> 10 µM
same,IC50,"[4]; HCT-116, Table 18",> 10 µM
same,IC50,[5]; Table 18,29.9 µM
C#Cc1cccc(Nc2nc3cc(C(=O)O)ccc3c3cncnc23)c1 [drawing 1347],Kel,"[10]; PO, 24.5 mg/kg",0.0594 h⁻¹
same,AUC(0-inf),"[10]; mouse, plasma, IV, 3.4 mg/kg",4900 ng·h/mL
same,AUC(0-t),"[10]; mouse, plasma, IV, 3.4 mg/kg",4810 ng·h/mL
same,Cmax,"[10]; mouse, plasma, IV, 3.4 mg/kg",4740 ng/mL
same,Vd,"[10]; mouse, plasma, IV, 3.4 mg/kg",4.9 L/kg
same,AUC(0-inf),"[10]; mouse, plasma, PO, 24.5 mg/kg",10900 ng·h/mL
same,AUC(0-t),"[10]; mouse, plasma, PO, 24.5 mg/kg",9120 ng·h/mL
same,Cmax,"[10]; mouse, plasma, PO, 24.5 mg/kg",1600 ng/mL
same,Tmax,"[10]; mouse, plasma, PO, 24.5 mg/kg",30 min
O=C(O)c1ccc2c(c1)nc(NCCc1cccc(Cl)c1)c1ccncc12 [drawing 1021],IC50,"[1]; Table 18, read-out: IC50 PC3",46.6 µM
same,IC50,"[2]; MIA PaCa-2, Table 18",> 10 µM
same,IC50,"[4]; HCT-116, Table 18",> 10 µM
same,IC50,[5]; Table 18,25 µM
Nc1ncc2c(n1)c(NC1CC1)nc1cc(C(=O)O)ccc12 [drawing 1295],IC50,[7],> 50 µM
same,IC50,[8],43.8 µM
Cc1cc(Nc2ncc3c(n2)c(Nc2ccc(F)c(Cl)c2)nc2cc(C(=O)O)ccc23)[nH]n1 [drawing 1286],IC50,[7],> 50 µM
same,IC50,[8],> 50 µM
O=C(O)c1ccc2c(c1)nc(NC1CC1)c1nc(SCc3ccccc3Cl)ncc12 [drawing 1265],IC50,[7],> 50 µM
same,IC50,[8],45.3 µM
CC1CCCCN1CCCNc1ncc2c(n1)c(Nc1ccc(F)c(Cl)c1)nc1cc(C(=O)O)ccc12 (stereo not drawn) [drawing 1087],IC50,"[2]; MIA PaCa-2, Table 18",3.16 µM
same,IC50,[3]; Table 18,2.86 µM
CC1CCCCN1CCCNc1ncc2c(n1)c(Nc1ccc(F)c(Cl)c1)nc1cc(C(=O)O)ccc12 (stereo not drawn) [drawing 1280],IC50,[7],10.5 µM
same,IC50,[8],3.34 µM
O=C(O)c1ccc2c(c1)nc(NCc1cccnc1)c1nc(NC3CC3)ncc12 [drawing 1276],IC50,[7],> 50 µM
same,IC50,[8],> 50 µM
c1ccc(Nc2nc3cc(-c4nnn[nH]4)ccc3c3sccc23)cc1,IC50,"[1]; Table 16, read-out: IC50 PC3",20 µM
same,IC50,[4]; [12],> 10 µM
same,IC50,[5]; Table 16,21.8 µM
same,IC50,[6]; Table 16,11.7 µM
O=C(O)c1ccc2c(c1)nc(NCc1ccccc1)c1ccncc12 [drawing 1218],IC50,[7],> 50 µM
same,IC50,[8],> 50 µM
O=C(O)c1ccc2c(c1)nc(NC1CC1)c1nc(NC3CC3)ncc12 [drawing 1074],IC50,"[2]; MIA PaCa-2, Table 18",2.83 µM
same,IC50,[3]; Table 18,3.45 µM
same,IC50,"[4]; HCT-116, Table 18",> 10 µM
O=C(O)c1ccc2c(c1)nc(NCc1ccccc1)c1nc(NC3CC3)ncc12 [drawing 1277],IC50,[7],19.1 µM
same,IC50,[8],22.3 µM
CCCNc1ncc2c(n1)c(NC1CC1)nc1cc(C(=O)O)ccc12 [drawing 1296],IC50,[7],1.33 µM
same,IC50,[8],5.58 µM
